The target in one experiment is Genome polyprotein (dengue virus type 2, UniProt P29990). As to the kind of experiment: Dengue-2 NS5 methyltransferase inhibitors, primary screen, biochemical, confirmation dose response (AID 588689). Type of experiment: functional.
The target of experiment [1] is Peroxisome proliferator-activated receptor gamma/Nuclear receptor coactivator 3 (Homo sapiens, UniProt P37231). As to the kind of experiment: TR-FRET dose response biochemical High Throughput Screening assay for agonists of the steroid receptor coactivator 3 (SRC-3) recruitment by the peroxisome proliferator-activated receptor gamma (PPAR gamma): non-selective agonists. [Related pubchem assays: 1301 (Confirmation screen.), 1048 (Primary screen.)]. Format: functional. In general terms: TR-FRET usually uses a lanthanide donor and a delayed reading to cut background.

Experiment [2] has as its target Peroxisome proliferator-activated receptor gamma/Nuclear receptor coactivator 2 (Homo sapiens, UniProt P37231). As to the kind of experiment: TR-FRET dose response biochemical High Throughput Screening assay for agonists of the steroid receptor coactivator 2 (SRC-2) recruitment by the peroxisome proliferator-activated receptor gamma (PPAR gamma): non-selective agonists. [Related pubchem assays: 1297, 1032 ]. Type of experiment: functional.

Experiment [3] is described as follows: cytotoxicity in HEK-293T cells, dose response, cytotoxicity control for BCR NF-kB inhibitor project, luminescence, B-cell screen hits (AID 489021).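 Note: HEK-293T cells carrying an NF-kB luciferase reporter; cells exposed to compound for about 14 hours before viability readout.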 Type of experiment: functional, cell-based.
In experiment [4] the target is Peroxisome proliferator-activated receptor gamma/Nuclear receptor coactivator 1 (Homo sapiens, UniProt P37231). As to the kind of experiment: TR-FRET dose response biochemical High Throughput Screening assay for agonists of the steroid receptor coactivator 1 (SRC-1) recruitment by the peroxisome proliferator-activated receptor gamma (PPAR gamma): non-selective agonists. [Related pubchem assays (depositor defined):AID1300, AID1808, AID504735, AID631]. Format: protein assay.

The target in experiment [5] is DNA dC->dU-editing enzyme APOBEC-3G (Homo sapiens, UniProt Q9HC16). Type of experiment: functional.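 Note: Dose-response counterscreen measuring inhibition of APOBEC3G DNA deaminase activity, run while confirming APOBEC3A inhibitors.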
For experiment [6], the target named is DNA dC->dU-editing enzyme APOBEC-3A (Homo sapiens, UniProt P31941). As to the kind of experiment: Dose Response confirmation of small molecule APOBEC3A DNA Deaminase Inhibitors via a fluorescence-based single-stranded DNA deaminase assay. [Related pubchem assays (depositor defined):AID493011, AID493024]. Format: functional.
Experiment [7] concerns the target T1, Apoptotic protease-activating factor 1 (Homo sapiens, UniProt O14727).
T1 sequence (O14727 whole entry): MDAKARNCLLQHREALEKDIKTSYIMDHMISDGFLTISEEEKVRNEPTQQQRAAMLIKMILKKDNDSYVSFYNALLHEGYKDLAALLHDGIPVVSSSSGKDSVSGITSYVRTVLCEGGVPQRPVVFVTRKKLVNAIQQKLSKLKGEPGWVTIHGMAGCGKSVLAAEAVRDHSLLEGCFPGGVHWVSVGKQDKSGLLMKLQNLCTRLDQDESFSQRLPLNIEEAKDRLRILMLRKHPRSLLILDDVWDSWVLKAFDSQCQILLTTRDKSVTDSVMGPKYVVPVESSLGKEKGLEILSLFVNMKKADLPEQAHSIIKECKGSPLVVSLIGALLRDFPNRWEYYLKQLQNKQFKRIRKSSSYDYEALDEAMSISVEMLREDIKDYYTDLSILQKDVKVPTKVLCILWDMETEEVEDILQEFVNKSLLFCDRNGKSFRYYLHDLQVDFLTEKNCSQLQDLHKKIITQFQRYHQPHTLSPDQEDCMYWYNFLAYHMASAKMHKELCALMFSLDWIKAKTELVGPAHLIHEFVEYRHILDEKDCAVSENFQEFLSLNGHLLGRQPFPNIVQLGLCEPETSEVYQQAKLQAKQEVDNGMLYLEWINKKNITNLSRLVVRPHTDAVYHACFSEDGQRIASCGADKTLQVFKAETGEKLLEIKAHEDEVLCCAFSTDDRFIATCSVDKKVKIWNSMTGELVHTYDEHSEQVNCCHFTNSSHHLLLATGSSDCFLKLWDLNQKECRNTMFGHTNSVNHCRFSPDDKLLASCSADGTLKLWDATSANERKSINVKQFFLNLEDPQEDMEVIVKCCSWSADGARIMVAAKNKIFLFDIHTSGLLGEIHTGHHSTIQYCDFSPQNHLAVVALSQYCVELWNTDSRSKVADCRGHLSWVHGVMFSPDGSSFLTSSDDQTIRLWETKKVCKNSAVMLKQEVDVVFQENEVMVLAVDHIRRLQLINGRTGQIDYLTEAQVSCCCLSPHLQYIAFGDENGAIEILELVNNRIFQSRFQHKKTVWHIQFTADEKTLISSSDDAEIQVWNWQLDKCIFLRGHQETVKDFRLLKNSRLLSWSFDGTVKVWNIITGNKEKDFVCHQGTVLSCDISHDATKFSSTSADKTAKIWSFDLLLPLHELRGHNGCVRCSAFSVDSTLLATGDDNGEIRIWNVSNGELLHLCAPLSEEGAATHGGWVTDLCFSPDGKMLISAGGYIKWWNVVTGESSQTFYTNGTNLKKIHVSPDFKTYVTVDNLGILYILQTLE
Format: functional.

The target of experiment [8] is T2, Mannose-6-phosphate isomerase (Homo sapiens, UniProt P34949).
T2 sequence (P34949 whole entry): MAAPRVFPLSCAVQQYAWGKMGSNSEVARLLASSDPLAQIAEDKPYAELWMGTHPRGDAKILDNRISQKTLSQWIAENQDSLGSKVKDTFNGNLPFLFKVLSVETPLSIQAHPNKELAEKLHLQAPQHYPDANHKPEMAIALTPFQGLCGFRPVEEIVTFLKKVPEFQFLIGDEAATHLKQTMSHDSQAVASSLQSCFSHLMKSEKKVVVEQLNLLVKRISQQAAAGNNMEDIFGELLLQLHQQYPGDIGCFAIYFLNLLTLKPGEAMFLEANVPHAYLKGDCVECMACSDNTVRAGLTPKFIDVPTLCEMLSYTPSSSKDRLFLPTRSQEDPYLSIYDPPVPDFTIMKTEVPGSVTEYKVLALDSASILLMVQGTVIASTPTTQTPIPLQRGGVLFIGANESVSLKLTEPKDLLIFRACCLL
As to the kind of experiment: human PMI inhibitors, high substrate, primary screen, biochemical, fluorescence intensity, high mannose 6-phosphate (AID 1220).

The next experiment addresses T3, Protein RecA (Mycobacterium tuberculosis, UniProt P9WHJ3).
T3 sequence (P9WHJ3 whole entry): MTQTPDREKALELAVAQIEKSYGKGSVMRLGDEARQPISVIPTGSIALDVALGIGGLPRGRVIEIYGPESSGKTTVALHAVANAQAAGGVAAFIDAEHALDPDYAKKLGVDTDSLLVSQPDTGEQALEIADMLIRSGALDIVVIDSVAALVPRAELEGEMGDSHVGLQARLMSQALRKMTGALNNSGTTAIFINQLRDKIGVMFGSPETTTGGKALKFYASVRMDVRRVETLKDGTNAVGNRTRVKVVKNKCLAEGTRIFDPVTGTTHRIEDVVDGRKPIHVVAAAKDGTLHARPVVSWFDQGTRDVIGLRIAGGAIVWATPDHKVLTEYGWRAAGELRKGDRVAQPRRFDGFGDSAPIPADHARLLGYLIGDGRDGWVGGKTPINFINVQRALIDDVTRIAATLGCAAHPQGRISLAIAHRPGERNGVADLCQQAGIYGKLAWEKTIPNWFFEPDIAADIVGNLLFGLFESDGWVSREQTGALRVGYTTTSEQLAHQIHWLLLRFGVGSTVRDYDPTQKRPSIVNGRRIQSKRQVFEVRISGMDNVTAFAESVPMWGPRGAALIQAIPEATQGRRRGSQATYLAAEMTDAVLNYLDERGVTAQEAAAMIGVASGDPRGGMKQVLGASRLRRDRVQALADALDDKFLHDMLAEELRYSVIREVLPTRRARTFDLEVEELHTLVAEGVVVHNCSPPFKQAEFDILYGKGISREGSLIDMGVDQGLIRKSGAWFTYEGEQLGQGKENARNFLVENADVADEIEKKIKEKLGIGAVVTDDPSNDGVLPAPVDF
Kind of experiment: Fluorescence Cell-Free Homogeneous Dose Retest to Identify Inhibitors of RecA-Intein Splicing Activity. [Related pubchem assays (depositor defined):AID2097, AID2223, AID489010, AID492950]. Format: functional.

Experiment [9] concerns the target Luciferin 4-monooxygenase (Photinus pyralis, UniProt P08659). Kind of experiment: Counter Screen for Luciferase-based Assay Positives. [Related pubchem assays: 620, 618, 411 ].
In the next experiment the test system is HT-1080. As to the kind of experiment: cytotoxicity in HT1080 fibrosarcoma cells, cell-based, fluorescence readout (AID 620). Type of experiment: functional. The following applies: Homo sapiens.
The target in the next experiment is Estrogen receptor beta (Homo sapiens, UniProt Q92731).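 Note: recombinant ER-beta bound to coactivator SRC1 peptide in presence of estradiol agonist; inhibitors block coactivator peptide binding and lower the FRET signal.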
Experiment [10] can be described thus: A Cell Based Secondary Assay To Explore Cytotoxicity of Compounds that Sensitize Mycobacterium Tuberculosis to Beta-Lactam Antibiotics. Type of experiment: functional.
Experiment [11] can be described thus: cytotoxicity in HEK-293T cells, dose response, cytotoxicity control for TCR NF-kB inhibitor project, luminescence, T-cell screen hits (AID 489026).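 Note: cells exposed to compound about 14 hours before the viability readout.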 Type of experiment: functional, cell-based.
For experiment [12], the target named is Eukaryotic translation initiation factor 4E (Mus musculus, UniProt P63073). As to the kind of experiment: eIF4E–eIF4G protein interaction inhibitors, dose response, biochemical, TR-FRET (AID 855).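 Note: potency for disrupting eIF4E binding to eIF4GI seen as loss of FRET.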 Format: functional.
Experiment [13] has as its target T4, Rac GTPase-activating protein 1 (Homo sapiens, UniProt Q9H0H5).
T4 sequence (Q9H0H5 whole entry): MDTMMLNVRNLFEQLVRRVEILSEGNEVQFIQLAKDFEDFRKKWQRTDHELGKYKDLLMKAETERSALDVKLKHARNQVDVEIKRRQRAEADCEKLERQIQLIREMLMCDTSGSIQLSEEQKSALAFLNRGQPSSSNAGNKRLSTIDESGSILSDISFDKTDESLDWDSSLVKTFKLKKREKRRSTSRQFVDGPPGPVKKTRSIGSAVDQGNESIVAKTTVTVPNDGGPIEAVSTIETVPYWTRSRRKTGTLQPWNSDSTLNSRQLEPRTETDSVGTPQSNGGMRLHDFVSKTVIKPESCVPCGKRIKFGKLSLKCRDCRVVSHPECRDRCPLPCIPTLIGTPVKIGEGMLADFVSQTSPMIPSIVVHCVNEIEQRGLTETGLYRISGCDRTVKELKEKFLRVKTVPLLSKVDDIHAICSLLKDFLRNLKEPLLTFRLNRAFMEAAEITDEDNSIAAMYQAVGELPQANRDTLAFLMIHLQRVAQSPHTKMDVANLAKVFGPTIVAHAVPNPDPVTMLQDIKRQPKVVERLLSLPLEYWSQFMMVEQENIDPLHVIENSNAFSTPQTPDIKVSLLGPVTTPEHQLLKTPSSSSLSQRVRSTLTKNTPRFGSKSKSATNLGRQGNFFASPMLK
As to the kind of experiment: MgcRacGAP GTPase-activating activity inhibitors, confirmation, biochemical, ADP Hunter fluorescence, primary and confirmatory (AID 624330). Format: functional.

Active and inactive are the calls of the source.

Chain of DNA dC->dU-editing enzyme APOBEC-3G (Q9HC16 whole entry): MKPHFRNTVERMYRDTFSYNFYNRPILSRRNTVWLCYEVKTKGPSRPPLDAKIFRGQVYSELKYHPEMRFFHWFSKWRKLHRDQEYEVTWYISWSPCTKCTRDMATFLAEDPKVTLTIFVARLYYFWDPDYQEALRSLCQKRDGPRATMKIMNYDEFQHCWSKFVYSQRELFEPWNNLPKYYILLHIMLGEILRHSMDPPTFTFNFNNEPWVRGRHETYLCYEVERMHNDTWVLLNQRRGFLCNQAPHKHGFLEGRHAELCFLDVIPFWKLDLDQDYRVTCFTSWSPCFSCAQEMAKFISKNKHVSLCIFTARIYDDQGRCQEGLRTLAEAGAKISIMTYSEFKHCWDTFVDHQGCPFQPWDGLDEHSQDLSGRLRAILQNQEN
Chain of DNA dC->dU-editing enzyme APOBEC-3A (P31941 whole entry): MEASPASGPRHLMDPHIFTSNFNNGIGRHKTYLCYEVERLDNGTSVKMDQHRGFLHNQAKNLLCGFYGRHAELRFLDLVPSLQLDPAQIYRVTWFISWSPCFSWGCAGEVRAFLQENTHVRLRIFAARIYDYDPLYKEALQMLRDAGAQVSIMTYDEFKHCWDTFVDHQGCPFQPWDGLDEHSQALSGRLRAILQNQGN
Chain of Peroxisome proliferator-activated receptor gamma/Nuclear receptor coactivator 2 (P37231 whole entry): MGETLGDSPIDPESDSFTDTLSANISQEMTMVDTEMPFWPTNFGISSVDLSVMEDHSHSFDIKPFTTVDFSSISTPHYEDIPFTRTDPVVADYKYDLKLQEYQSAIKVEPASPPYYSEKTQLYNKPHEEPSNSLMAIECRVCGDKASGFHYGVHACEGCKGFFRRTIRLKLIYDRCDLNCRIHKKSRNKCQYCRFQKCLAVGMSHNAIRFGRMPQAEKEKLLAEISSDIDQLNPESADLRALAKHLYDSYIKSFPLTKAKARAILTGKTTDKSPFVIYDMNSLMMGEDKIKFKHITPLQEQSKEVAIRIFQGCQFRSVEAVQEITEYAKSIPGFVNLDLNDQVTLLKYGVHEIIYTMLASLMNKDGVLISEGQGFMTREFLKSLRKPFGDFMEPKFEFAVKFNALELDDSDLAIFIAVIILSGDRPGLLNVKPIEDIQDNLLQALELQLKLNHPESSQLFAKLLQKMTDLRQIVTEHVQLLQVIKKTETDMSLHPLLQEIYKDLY
Chain of Peroxisome proliferator-activated receptor gamma/Nuclear receptor coactivator 2 (Q15596 whole entry, further chain): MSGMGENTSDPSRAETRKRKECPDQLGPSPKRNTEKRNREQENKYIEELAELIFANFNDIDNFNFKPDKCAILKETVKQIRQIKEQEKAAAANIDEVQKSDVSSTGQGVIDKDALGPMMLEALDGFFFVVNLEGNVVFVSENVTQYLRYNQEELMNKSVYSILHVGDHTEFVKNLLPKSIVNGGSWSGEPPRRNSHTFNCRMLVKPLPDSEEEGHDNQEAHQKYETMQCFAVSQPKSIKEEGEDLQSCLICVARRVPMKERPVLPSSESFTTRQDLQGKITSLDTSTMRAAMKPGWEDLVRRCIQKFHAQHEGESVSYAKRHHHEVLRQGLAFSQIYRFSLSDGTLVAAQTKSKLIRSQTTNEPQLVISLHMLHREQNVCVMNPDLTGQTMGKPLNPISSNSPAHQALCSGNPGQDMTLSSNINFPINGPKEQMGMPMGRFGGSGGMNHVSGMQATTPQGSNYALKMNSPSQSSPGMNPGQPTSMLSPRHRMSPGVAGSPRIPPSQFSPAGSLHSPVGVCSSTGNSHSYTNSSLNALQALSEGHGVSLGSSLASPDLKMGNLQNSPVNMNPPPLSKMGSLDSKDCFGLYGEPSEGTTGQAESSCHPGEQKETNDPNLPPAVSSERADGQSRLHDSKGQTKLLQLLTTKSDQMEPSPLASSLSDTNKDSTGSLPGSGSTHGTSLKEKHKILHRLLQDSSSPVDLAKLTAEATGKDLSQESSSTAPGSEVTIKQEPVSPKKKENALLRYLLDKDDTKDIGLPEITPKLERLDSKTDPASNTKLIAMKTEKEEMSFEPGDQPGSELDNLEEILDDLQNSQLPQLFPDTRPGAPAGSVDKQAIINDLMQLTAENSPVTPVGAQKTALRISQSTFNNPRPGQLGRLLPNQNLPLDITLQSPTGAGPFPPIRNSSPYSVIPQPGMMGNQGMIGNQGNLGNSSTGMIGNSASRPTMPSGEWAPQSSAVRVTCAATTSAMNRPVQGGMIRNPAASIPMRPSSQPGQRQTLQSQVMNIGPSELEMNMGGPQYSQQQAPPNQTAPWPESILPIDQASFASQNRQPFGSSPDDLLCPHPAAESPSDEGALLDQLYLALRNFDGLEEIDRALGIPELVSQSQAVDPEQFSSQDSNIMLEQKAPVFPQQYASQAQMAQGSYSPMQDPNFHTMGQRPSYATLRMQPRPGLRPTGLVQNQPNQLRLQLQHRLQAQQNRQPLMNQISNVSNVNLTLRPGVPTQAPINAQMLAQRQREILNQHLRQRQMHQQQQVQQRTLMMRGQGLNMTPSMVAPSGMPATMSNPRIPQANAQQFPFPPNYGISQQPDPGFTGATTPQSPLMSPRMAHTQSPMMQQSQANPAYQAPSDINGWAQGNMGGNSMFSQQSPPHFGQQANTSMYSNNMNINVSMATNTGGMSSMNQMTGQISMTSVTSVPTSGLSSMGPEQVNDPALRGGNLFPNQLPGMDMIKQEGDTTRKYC
Chain of Peroxisome proliferator-activated receptor gamma/Nuclear receptor coactivator 1 (P37231 whole entry): as the sequence (P37231 whole entry) above
Chain of Peroxisome proliferator-activated receptor gamma/Nuclear receptor coactivator 1 (Q15788 whole entry, further chain): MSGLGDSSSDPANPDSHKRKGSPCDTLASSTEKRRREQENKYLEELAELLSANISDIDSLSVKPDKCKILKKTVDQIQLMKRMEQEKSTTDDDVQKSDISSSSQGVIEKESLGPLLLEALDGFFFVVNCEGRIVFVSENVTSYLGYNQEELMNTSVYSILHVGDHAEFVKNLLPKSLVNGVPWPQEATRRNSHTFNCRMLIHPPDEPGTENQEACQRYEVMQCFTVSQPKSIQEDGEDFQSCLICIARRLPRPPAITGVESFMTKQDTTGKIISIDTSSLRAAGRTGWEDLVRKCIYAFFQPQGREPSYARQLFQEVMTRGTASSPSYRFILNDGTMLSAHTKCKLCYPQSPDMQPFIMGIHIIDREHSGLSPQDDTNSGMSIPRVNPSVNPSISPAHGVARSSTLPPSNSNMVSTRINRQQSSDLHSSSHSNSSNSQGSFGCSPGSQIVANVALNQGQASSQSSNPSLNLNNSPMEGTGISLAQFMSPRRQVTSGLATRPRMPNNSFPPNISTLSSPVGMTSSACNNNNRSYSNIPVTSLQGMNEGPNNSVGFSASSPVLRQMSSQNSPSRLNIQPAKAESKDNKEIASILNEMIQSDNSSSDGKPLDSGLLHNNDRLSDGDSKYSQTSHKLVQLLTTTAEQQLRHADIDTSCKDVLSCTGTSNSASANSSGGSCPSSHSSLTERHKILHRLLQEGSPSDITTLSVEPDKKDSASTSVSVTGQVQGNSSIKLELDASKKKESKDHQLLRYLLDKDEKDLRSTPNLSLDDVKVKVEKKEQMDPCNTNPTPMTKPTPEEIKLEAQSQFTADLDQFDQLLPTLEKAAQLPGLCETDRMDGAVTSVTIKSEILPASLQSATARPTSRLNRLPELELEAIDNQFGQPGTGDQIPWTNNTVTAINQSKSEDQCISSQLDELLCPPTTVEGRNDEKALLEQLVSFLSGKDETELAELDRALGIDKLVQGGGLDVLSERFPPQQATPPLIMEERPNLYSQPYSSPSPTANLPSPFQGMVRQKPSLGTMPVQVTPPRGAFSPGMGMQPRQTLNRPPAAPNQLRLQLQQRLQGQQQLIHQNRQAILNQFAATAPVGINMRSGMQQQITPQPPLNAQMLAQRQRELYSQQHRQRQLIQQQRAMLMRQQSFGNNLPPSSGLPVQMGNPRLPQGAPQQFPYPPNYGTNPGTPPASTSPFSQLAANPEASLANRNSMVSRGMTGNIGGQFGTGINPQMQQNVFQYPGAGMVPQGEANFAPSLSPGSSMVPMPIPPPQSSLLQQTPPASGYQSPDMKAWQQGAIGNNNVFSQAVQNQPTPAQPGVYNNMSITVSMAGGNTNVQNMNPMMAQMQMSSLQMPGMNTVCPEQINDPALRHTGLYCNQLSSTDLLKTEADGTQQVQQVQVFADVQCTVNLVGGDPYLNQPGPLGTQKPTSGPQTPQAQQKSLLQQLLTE
Chain of Eukaryotic translation initiation factor 4E (P63073 whole entry): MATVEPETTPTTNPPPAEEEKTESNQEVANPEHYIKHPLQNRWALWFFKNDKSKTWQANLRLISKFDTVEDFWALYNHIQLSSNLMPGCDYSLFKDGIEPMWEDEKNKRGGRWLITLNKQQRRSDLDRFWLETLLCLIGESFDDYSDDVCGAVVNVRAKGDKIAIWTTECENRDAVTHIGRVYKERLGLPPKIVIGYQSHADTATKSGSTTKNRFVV

Broadly, the IC50 is the concentration at which inhibition is half-maximal. As to `COc1cc(/C=C2/C(=O)NC(=O)N(c3ccccc3)C2=O)ccc1O`, the IC50 at Genome polyprotein was > 100 µM (active).

What is called EC50 is the midpoint of the concentration-response curve. On to `CCn1c(=O)cc(SCC(=O)N2CCOCC2)c2ccccc21`, for which the concentration for a half-maximal effect (EC50) in [1] is > 79.4 µM (not active); in experiment [2], > 79.4 µM (not active); in experiment [4], > 79.4 µM (inactive). In addition, the IC50 in experiment [3] was > 80 µM (inactive).

For `O=C(COc1ccccc1/C=C1/NC(=O)NC1=O)Nc1ccccc1`, the values for the IC50 in [5] and in experiment [6] were 3.26 µM (active) and 3.71 µM (active), respectively.

For the compound `CC(=O)OCCCn1c(C)[n+](C)c2cc(Cl)c(Cl)cc21`, the values for the IC50 in [5] and in experiment [6] were 2.41 µM (active) and 2.27 µM (active), respectively.

Turning to `CCCCCn1c(N)c(C(=O)NCc2cccs2)c2nc3ccccc3nc21`, the IC50 is 53.7 µM (active) in experiment [7] and > 50 µM (not active) in experiment [8]. Moreover, the EC50 at Protein RecA was 1.24 µM (active).

On to `CC1=CC(C)(C)[N+](C)(C)c2ccc(C)cc21`, for which the IC50 is 3.44 µM (active) in [5] and 2.06 µM (active) in experiment [6].

On to `Cc1c(C(=O)NCC2CCCO2)oc2ccc3c(c12)C(=O)CC(C)(C)O3` (centres undefined), for which the EC50 is 0.54 µM (active) in experiment [9] and > 50 µM (not active) in the experiment with HT-1080.

Consider `CC(=O)OC(COC1C[C@@H]2CC[C@@]1(C)C2(C)C)C[N+]1(C)CCCCC1` (some centres undefined), for which the IC50 in experiment [5] was 3.55 µM (active); in experiment [6] it was 1.91 µM (active).

On to `CN(CC(O)COc1ccc(S(=O)(=O)N2CCOCC2)cc1)C1CCCCC1` (centres undefined), for which the IC50 against Estrogen receptor beta is reported as > 50 µM (not active).

With `COc1ccccc1-c1nnc(S)o1`, the EC50 was > 79.4 µM (not active) in [1], 11.9 µM (not active) in [2] and 59.1 µM (inactive) in experiment [4].

As to `O=C(O)c1cc(/C=C/C(=O)c2cc(F)ccc2O)c2c(c1)COCO2`, at Genome polyprotein, the IC50 is > 100 µM (active).

In general, CC50 refers to the concentration at which the toxic effect on the cells reaches its halfway point. With `COCCCn1c(=O)/c(=C\c2cccc(OC)c2OC)s/c1=C(/C#N)C(=O)Nc1ccc(C(=O)O)cc1`, the CC50 in [10] is > 40 µM (active). The IC50 in [3] is > 80 µM (inactive).

Turning to `Oc1cc(-c2ccccc2)nc2ccccc12`, the results for the IC50 in experiment [11] and in experiment [12] were > 80 µM (inactive) and > 64 µM (inactive), respectively.

On to `Sc1nnc(-c2ccco2)n1/N=C/c1ccc(Cl)cc1`, for which the IC50 in [13] was 58.3 µM (active); in experiment [12], > 64 µM (inactive).

Values taken from ChEMBL document CHEMBL1201862, “PubChem BioAssay data set” (2004).
